# Where a SMILES comes first, the peptide text is derived from it. Bridges are numbered along the chain shown (N, C = ends). Roman numbers before positions name the chains, in order. [ ]: non-standard residue; d: D form. Dab = NCC[C@H](N)C(=O)O
# Key:
# Aβ(12-28) [1] = test: Circular dichroism spectroscopy of Aβ secondary structure; type: biochemical; conditions: 1:1 molar ratio, sodium phosphate buffer pH 7, 30% (v/v) trifluoroethanol, 20°C; compared with Aβ(12-28) alone; ligand spectrum subtracted
# Procedure: Compounds described herein can be tested for their ability to affect the secondary structure of an Aβ peptide. As an example, addition of ligands to Aβ(1-40) or Aβ(12-28) in solution increased the helical content of Aβ peptides, as measured by circular dichroism (CD) spectroscopy. This is evidenced by a decrease in molar ellipticity at 208 and 222 nm, and an increase in molar ellipticity at 190-195 nm (an example is shown in Fig. 6). In these experiments, Aβ peptides (concentration about 20 µM to 100 µM) were mixed with ligands in ligand/Aβ molar ratios ranging between 1 and 10. The measurements were performed in phosphate buffer (as described below for thioflavin T measurements) or in phosphate buffer containing 30% trifluoroethanol. The samples were incubated at 37°C with or without shaking before measurements. CD measurements were performed at room temperature in a Jasco 810 instrument using a 1 mm cuvette (sample volume 200-300 µl). For each sample, three spectra were accumulated. Spectra were measured between 260 and 185 nm, and the spectra of buffer and ligands alone were subtracted from the spectra of the mixtures. Molar ellipticity values were calculated using the recorded spectra and the peptide concentrations, and expressed in kdeg x cm^2/dmol. […]
# Aβ(1-40) [2] = test: Tryptophan fluorescence emission of ligand (binding to Aβ); conditions: excitation 280 nm; for emission maximum: sodium phosphate buffer pH 7, 30% (v/v) trifluoroethanol, 20°C
# Procedure: (§1) In these experiments, shifts in fluorescence emission were used to indicate binding. In these experiments, ligand 3 (about 10 µM) was dissolved in sodium phosphate buffer, pH 7, with or without trifluoroethanol present. Fluorescence was measured in a Hitachi F-4000 spectrophotometer, and emission was measured between 300 and 430 nm after excitation at 280 nm.
# (§2) When Aβ(1-40) or Aβ(12-28) was added to a solution containing ligand 3, the fluorescence yield was increased (e.g., Fig 7) and the wavelength at maximum emission was shifted from about 348 nm to 344 nm.
# Aβ(12-28) [3] = test: as above; conditions: after addition of Aβ(12-28); excitation 280 nm
# Procedure: as §1, §2
# Aβ(1-40) [4] = test: Thioflavin T fluorescence assay of Aβ fibril formation; type: biochemical
# Procedure: Fibril formation of Aβ(1-40) or Aβ(12-28) with and without the presence of the ligands was assessed by the fibril-binding dye thioflavin T (ThT). Solutions containing Aβ peptides in concentrations from about 20 µM to 200 µM without ligand present, or at different peptide/ligand ratios were prepared in 10 mM sodium phosphate buffer, pH 7. The samples were incubated at 37°C under constant gentle shaking. At different time points aliquots were removed and ThT measurements performed using 10 µM ThT in 10 mM sodium phosphate buffer, pH 6, containing 150mMNaCl.
# The samples were incubated for 10-15 minutes in the dark before ThT fluorescence measurements were made. Fluorescence was measured using a FarCyte™ (Tecan) instrument with excitation at 440 nm and emission at 480 nm. All samples were measured in duplicates.
# [5] = tested on: Drosophila melanogaster express Aβ1-42 in neurons; test: Longevity in Drosophila model of Alzheimer's disease; type: in vivo
# Text: A model of Alzheimer's disease was used in which Drosophila melanogaster express Aβ1-42 in neurons (Crowther et al., 2005, Neuroscience 132:123-135).
# [6] = tested on: wild type Drosophila (WIII8) that do not express Aβ(1-42); test: Longevity in control flies not expressing Aβ; type: in vivo; conditions: 650 µM in the food; control flies not expressing Aβ (Fig. 13)
smiles,measurement,setting,value
"CC(=O)N[C@H](CCC(=O)O)C(=O)N[C@@H](CCNC(=O)[C@@H](Cc1c[nH]c2ccccc12)NC(=O)[C@@H](N)CCCNC(=N)N)C(=O)O [ligand 3, Ac-D-Glu-Dab(Arg-D-Trp)] (I: H-Arg-[dW] / II: Ac-[dE]-[Dab]-OH; amide I:C-II:2)",circular dichroism spectra,Aβ(12-28) [1],lowest value at 222 nm and highest value at 195 nm
same,fluorescence yield,Aβ(1-40) [2]; after addition of Aβ(1-40),increased
same,wavelength at maximum emission,Aβ(1-40) [2]; after addition of Aβ(1-40),344 nm
same,emission maximum,"Aβ(1-40) [2]; complex with Aβ(1-40), 1:1 molar ratio",344 nm
same,wavelength at maximum emission,Aβ(1-40) [2]; ligand about 10 µM before addition of Aβ,about 348 nm
same,emission maximum,Aβ(1-40) [2]; ligand only,348 nm
same,fluorescence yield,Aβ(12-28) [3],increased
same,wavelength at maximum emission,Aβ(12-28) [3],344 nm
same,"Aβ(1-40) fibril formation, as measured by ThT binding","Aβ(1-40) [4]; 1:1 ligand/peptide molar ratio, 1.5 hours at 37°C (Fig. 9)",effective in reducing Aβ(1-40) fibril formation
same,ThT fluorescence induced by Aβ(1-40),"Aβ(1-40) [4]; different periods of incubation at 37°C, 10 mM sodium phosphate pH 7, 5:1 or 10:1 ligand/Aβ molar ratio (Fig. 8)",practically abolished
same,ThT fluorescence,"Aβ(1-40) [4]; ligand/Aβ ratio 5, compared with 1:1, 1.5 hours at 37°C (Fig. 9)",further reduction of ThT fluorescence
same,ThT fluorescence,"Aβ(1-40) [4]; ligand/Aβ ratio 10, 1.5 hours at 37°C (Fig. 9)",approximately the same result as a ligand/Aβ ratio of 5
same,mean survival time,"[5]; 134 µM in the food, 29°C and high humidity (Fig. 12)",increased the mean survival time
same,mean survival time,"[5]; 650 µM in the food, 28°C and low humidity, p=0.0035 (Fig. 11)",prolonged mean survival time
same,longevity,"[5]; fed from the larval stage, compared to untreated flies, two different experimental conditions",significant increase in longevity
same,effects on mean survival (longevity),[6],absence of a statistically significant difference

# — patent publication EP1858912B1, “COMPOUNDS FOR REDUCING AGGREGATION OF AMYLOID BETA-PEPTIDE” (Alphabeta AB, priority 2005, dated 2012)
